From patent US20130165368A1, “ANTIMICROBIAL COMPOUNDS” (priority 2010, published 2013)
In brackets after ≈: the same amount, converted by molar mass.

Columns and labels:
[1] = system: Respiratory Syncytial Virus (RSV), strain A2; test: Antiviral: cytopathic effect of RSV on A549 cells; assay type: cell-based; conditions: for Cytopathic effect (cpe): added 1 hour after virus absorption, 96 hours at 33° C., versus untreated lane
Method: (§1) A549 (ATCC CCL-185) cells were plated onto a 96 well and allowed to attach overnight, the wells were washed, and 100 ul of DMEM (Gibco) with 2% FCS was added. To the first column of the data set below, 100 μl of neat virus was added. The virus used was Respiratory Syncytial Virus (RSV), strain A2, a common laboratory strain which retains the ability to infect animal models.
(§2) A two serial dilution was performed (up to column 10), lanes 11+12 were uninfected controls, but relevant lanes contained the appropriate concentration of Laureth 4, laureth 4 was added 1 hour after virus absorption. The alkoxylated alkanol compounds used in the experiment were ‘high purity’, i.e. having a GC purity of at least 97%.
(§3) After 96 hours incubation at 33° C. the medium was removed, cell washed with PBS and stained with methylene blue (Gibco). Cytopathic effect (cpe) was noted visually and wells marked either as positive or negative when view under a light microscope at 4× magnification.

[2] = system: A549 (ATCC CCL-185) cells; assay type: cell-based
Method: as §1, §2, §3

yeasts = test: MIC with yeasts (Table XI); assay type: cell-based; conditions: 48 h, 48 hours at 37° C., aerobic
Method: (§4) Further experiments have also been conducted to determine the MIC of a number of other compositions as follows. The experimental procedure followed is the same as that initially described at the beginning of this Examples and Data section of the specification, except where indicated below.
The results were obtained following incubation for 48 hours at 37° C. in aerobic conditions.

Propionibacteria = test: MIC with Propionibacteria (Table X); assay type: cell-based; conditions: 48 h, 48 hours at 37° C., anaerobic
Method: as §4
The results were obtained following incubation for 48 hours at 37° C. in anaerobic conditions.

MRSA NCTC 11939 = test: Synergy testing: disc susceptibility, zone of inhibition on agar containing Laureth derivative; assay type: cell-based, Staphylococcus aureus; conditions: MRSA NCTC 11939, disc test
Method: There now follows data relating to a screen for synergistic interaction between Laureth derivatives [C12E1 to C12E8] and 12 conventional anti-staphylococcal agents.
Ethoxylated Lauryl Alcohol Derivative Preparation As plates containing quarter strength of the MIC of NCTC 11939 are needed, and therefore very small weights of each compound, they were prepared at twenty time strength in 20 mL volumes in plastic universals. Once prepared these solutions were diluted […] by adding 1 mL to 1 mL SDW, resulting a 2 mL volume at ten times strength. This was undertaken in duplicate to create two identical plates.
IST was prepared as previously stated in above. 18 mL agar was added to each universal and then poured into sterile Petri dishes. Control plates were prepared as stated above
A 0.5 McFarland suspension of MRSA NCTC 11939 was prepared using SDW. This was then adjusted to a concentration of 1.5×107 by adding 200 μL to 1.8 mL of SDW. Once diluted, a sterile cotton swab was used to spread the suspension evenly across the entire surface of each agar plate.
Twelve antibiotics discs were added to the plates, 6 per plate in a circle. The plates were then incubated aerobically at 37° C.
The diameter of the zones of clearance were measured and recorded in millimetres. The zones for each compound were compared to the control and to BSAC breakpoints.
A variation of zone size within 2 mm is within acceptable limits of assay reproducibility.

## CCCCCCCCCCCCOCCOCCOCCOCCO [L4, Tetraethylene Glycol Monododecyl Ether]
[1]; 0.01 mM
  Cytopathic effect (cpe): significantly reduced
[1]; 0.1 mM
  Cytopathic effect (cpe): significantly reduced
[1]; RSV A2 on A549 cells
  cytopathic effect of the virus on the cells (overall): can alleviate the cytopathic effect
[2]
  state of treated, uninfected cells: healthy and showed little cellular apathy
yeasts; Candida guilliemondii 380022E
  MIC: > 220 µM
yeasts; Candida lustaniae 458891B
  MIC: > 220 µM
yeasts; all of the yeasts tested
  MIC: < 880 µM
yeasts; Candida albicans, Candida albicans 383107
  MIC: > 220 µM
yeasts; Candida albicans, Candida albicans 384403C
  MIC: 220 µM (≈ 79.8 µg/mL)
yeasts; Candida albicans, Candida albicans 457932F
  MIC: > 220 µM
yeasts; Candida albicans, Candida albicans 464644V
  MIC: 220 µM (≈ 79.8 µg/mL)
yeasts; Candida albicans, Candida albicans 540668D
  MIC: 110 µM (≈ 39.9 µg/mL)
yeasts; Candida albicans, Candida albicans 540992V
  MIC: 220 µM (≈ 79.8 µg/mL)
yeasts; Candida albicans, Candida albicans 561251J
  MIC: > 220 µM
yeasts; Candida dubliniensis, Candida dubliniensis 383086P
  MIC: 110 µM (≈ 39.9 µg/mL)
yeasts; Candida tropicalis, Candida tropicalis 470273M
  MIC: > 220 µM
yeasts; Kluyveromyces marxianus, Candida kefyr 337838T
  MIC: 55 µM (≈ 19.9 µg/mL)
yeasts; Lodderomyces parapsilosis, Candida parapsilosis 381611V
  MIC: > 220 µM
yeasts; Lodderomyces parapsilosis, Candida parapsilosis 547133B
  MIC: > 220 µM
yeasts; Nakaseomyces glabratus, Candida glabrata 437713D
  MIC: > 220 µM
yeasts; Nakaseomyces glabratus, Candida glabrata 882870Q
  MIC: > 220 µM
yeasts; Pichia kudriavzevii, Candida krusei 378573D
  MIC: > 220 µM
Propionibacteria; Propionibacterium granulosum 354039G
  MIC: 440 µM (≈ 160 µg/mL)
Propionibacteria; Propionibacterium granulosum 354043J
  MIC: 440 µM (≈ 160 µg/mL)
Propionibacteria; Propionibacterium granulosum 354044V
  MIC: 880 µM (≈ 319 µg/mL)
Propionibacteria; Propionibacterium species 387327Y
  MIC: 440 µM (≈ 160 µg/mL)
Propionibacteria; certain of the Propionibacteria tested
  MIC: < 880 µM
Propionibacteria; Cutibacterium acnes, Propionibacterium acnes 737
  MIC: 880 µM (≈ 319 µg/mL)
Propionibacteria; Cutibacterium avidum, Propionibacterium avidum 340090P
  MIC: 880 µM (≈ 319 µg/mL)
Propionibacteria; Cutibacterium avidum, Propionibacterium avidum 340093T
  MIC: 880 µM (≈ 319 µg/mL)
Propionibacteria; Cutibacterium avidum, Propionibacterium avidum 340097V
  MIC: 880 µM (≈ 319 µg/mL)
Propionibacteria; Cutibacterium avidum, Propionibacterium avidum 354020J
  MIC: 880 µM (≈ 319 µg/mL)
Propionibacteria; Cutibacterium avidum, Propionibacterium avidum 354025L
  MIC: 880 µM (≈ 319 µg/mL)

## CCCCCCCCCCCCOCCOCCOCCOCCOCCOCCOCCOCCO [L8, Octaethylene Glycol Monododecyl Ether]
MRSA NCTC 11939
  susceptibility to various other agents in the presence of Laureth derivative: slight increase in susceptibility
